The source of these data is ChEMBL document CHEMBL5523737, “Novel Jatrophane Diterpenoids from Euphorbia esula Promotes Lipid Clearance by Transcriptional Regulation of PCSK9” (J Med Chem, 2024).

Calls of active or inactive are those of the source. No cut-off for these calls is given here. Some results are limits rather than exact numbers.

Data set [1] deals with Proprotein convertase subtilisin/kexin type 9 (Homo sapiens) (UniProt Q8NBP7). Briefly: Inhibition of PCSK9 transcription in human HepG2 cells at 5 uM by AlphaLISA method. The data set is classed as cell-based. Background: Bead proximity is the source of the signal in Alpha formats.
Data set [2] shares this target. Briefly: Inhibition of PCSK9 transcription in human HepG2 cells by AlphaLISA method. The data set is classed as cell-based.
Data set [3] deals with HepG2. Briefly: Induction of LDL uptake in human HepG2 cells incubated for 3 hrs under dark condition by DiI-LDL DMEM staining based fluorescence microplate reader assay. The data set is classed as functional, cell-based.
Data set [4] can be described thus: Cytotoxicity against human HepG2 cells assessed as cell viability at 20 uM after 24 hrs by CCK8 assay. The format is toxicity, cell-based. To be noted: read-out: Activity. (Tetrazolium assays rely on reduction of a dye to a coloured formazan, in cell work by metabolically active cells.)
Data set [5] relates to HepG2. Briefly: Downregulation of PCSK9 protein level in human HepG2 cells by Western blotting analysis. The format is functional, cell-based. To be noted: dose 1-20 µM. A general note: A western blot detects proteins with antibodies after separation by electrophoresis.
Data set [6] relates to HepG2. Kind of data set: Downregulation of PCSK9 mRNA level in human HepG2 cells by qRT-PCR analysis. The data set is classed as functional, cell-based. To be noted: dose 1-20 µM.
Data set [7] relates to HepG2. Briefly: Upregulation of LDLR protein level in human HepG2 cells by Western blotting analysis. The data set is classed as functional, cell-based.
Data set [8] has as its system HepG2. Briefly: Upregulation of LDLR mRNA level in human HepG2 cells by qRT-PCR analysis. The data set is classed as functional, cell-based.
In data set [9] the test system is HepG2. Kind of data set: Downregulation of PCSK9 protein level in human HepG2 cells at 5 uM after 3 hrs by Western blotting analysis. The data set is classed as functional, cell-based.
Data set [10] has as its system HepG2. Kind of data set: Upregulation of LDLR protein level in human HepG2 cells at 5 uM after 6 hrs by Western blotting analysis. The data set is classed as functional, cell-based.
For data set [11], the system named is HepG2. Kind of data set: Induction of LDL uptake in human LDLR knockdown HepG2 cells at 5 uM incubated for 3 hrs under dark condition by DiI-LDL DMEM staining based fluorescence microplate reader assay. The data set is classed as functional, cell-based.
In data set [12] the test system is HepG2. Briefly: Induction of LDL uptake in human PCSK9 knockdown HepG2 cells at 5 uM incubated for 3 hrs under dark condition by DiI-LDL DMEM staining based fluorescence microplate reader assay. The data set is classed as functional, cell-based.
Data set [13] deals with Proprotein convertase subtilisin/kexin type 9 (Homo sapiens) (UniProt Q8NBP7). Briefly: Inhibition of PCSK9 (unknown origin) promoter activity expressed in HEK293 cells co-transfected with SV40 incubated for 24 hrs by dual luciferase assay. The format is cell-based. Particulars: dose 1-20 µM.
Data set [14] has the same target. Kind of data set: Inhibition of PCSK9 (unknown origin) promoter activity expressed in HNF1alpha overexpressed HEK293 cells co-transfected with SV40 incubated for 24 hrs by dual luciferase assay. The format is cell-based.
For data set [15] the target is unchanged. Kind of data set: Inhibition of PCSK9 (unknown origin) promoter activity expressed in HNF1alpha knockdown HEK293 cells co-transfected with SV40 incubated for 24 hrs by dual luciferase assay. The format is cell-based.
Data set [16] has as its system HepG2. Briefly: Downregulation of PCSK9 protein level in HNF1alpha knockdown human HepG2 cells at 10 uM incubated for 24 hrs by Western blotting analysis. The format is functional, cell-based.
In data set [17] the test system is HepG2. Briefly: Upregulation of LDLR protein level in HNF1alpha knockdown human HepG2 cells at 10 uM incubated for 24 hrs by Western blotting analysis. The data set is classed as functional, cell-based.
Data set [18] deals with HepG2. Briefly: Downregulation of PCSK9 mRNA level in HNF1alpha knockdown human HepG2 cells incubated for 24 hrs by qRT-PCR analysis. The data set is classed as functional, cell-based.
For data set [19], the system named is HepG2. Kind of data set: Upregulation of LDLR mRNA level in HNF1alpha knockdown human HepG2 cells incubated for 24 hrs by qRT-PCR analysis. The format is functional, cell-based.
For data set [20], the system named is HepG2. Kind of data set: Induction of LDL uptake in HNF1alpha knockdown human HepG2 cells at 5 uM incubated for 3 hrs under dark condition by DiI-LDL DMEM staining based fluorescence microplate reader assay. The format is functional, cell-based.
In data set [21] the test system is HepG2. Briefly: Effect on HNF1alpha protein level in human HepG2 cells at 5 uM incubated for 24 hrs by Western blotting analysis. The format is functional, cell-based.
The subject of data set [22] is HepG2. Kind of data set: Inhibition of HNF1alpha nuclear transport in human HepG2 cells at 1 to 10 uM after 24 hrs by Western blotting analysis. The data set is classed as functional, cell-based. To be noted: dose 1-10 µM.
The target of data set [23] is Hepatocyte nuclear factor 1-alpha (Homo sapiens) (UniProt P20823). Kind of data set: Binding affinity to HNF1alpha in human HepG2 cells assessed as increase in thermal stability at 10 uM after 1 hr by CETSA. The data set is classed as cell-based.
Data set [24] deals with Hepatocyte. Briefly: Downregulation of PCSK9 protein level in HFD treated mouse hepatocytes at 5 to 20 uM incubated for 24 hrs by Western blotting analysis. Particulars: dose 5-20 µM. The format is functional, cell-based.
The test system of data set [25] is Hepatocyte. Briefly: Downregulation of PCSK9 mRNA level in HFD treated mouse hepatocytes at 5 to 20 uM incubated for 24 hrs by qRT-PCR analysis. The format is functional, cell-based. To be noted: dose 5-20 µM.
Data set [26] relates to Mus musculus. Kind of data set: Hypolipidemic activity in HFD induced C57BL/6 mouse assessed as reduction in serum LDL-C level at 10 to 30 mg/kg, ip administered for 3 weeks. The format is functional, organism-based. Particulars: dose 10-30 mg/kg.
For data set [27], the system named is Mus musculus. Briefly: Hypolipidemic activity in HFD induced C57BL/6 mouse assessed as reduction in serum VLDL-C level at 10 to 30 mg/kg, ip administered for 3 weeks. To be noted: dose 10-30 mg/kg. The format is functional, organism-based.
The test system of data set [28] is Mus musculus. Briefly: Hypolipidemic activity in HFD induced C57BL/6 mouse assessed as reduction in serum TC level at 10 to 30 mg/kg, ip administered for 3 weeks. The data set is classed as functional, organism-based. To be noted: dose 10-30 mg/kg.
Data set [29] has as its system Mus musculus. Kind of data set: Hypolipidemic activity in HFD induced C57BL/6 mouse assessed as reduction in serum TG level at 10 to 30 mg/kg, ip administered for 3 weeks. The data set is classed as functional, organism-based. To be noted: dose 10-30 mg/kg.
For data set [30], the system named is Mus musculus. Briefly: Downregulation of PCSK9 protein level in HFD induced C57BL/6 mouse liver at 10 to 30 mg/kg, ip administered for 3 weeks by Western blotting analysis. Particulars: dose 10-30 mg/kg. The data set is classed as functional, organism-based.
Data set [31] concerns Mus musculus. Briefly: Upregulation of […] protein level in HFD induced C57BL/6 mouse liver at 10 to 30 mg/kg, ip administered for 3 weeks by Western blotting analysis. The data set is classed as functional, organism-based. To be noted: dose 10-30 mg/kg.
Data set [32] in a line: Toxicity in HFD induced C57BL/6 mouse assessed as change in food intake at 10 to 30 mg/kg, ip administered for 3 weeks. The data set is classed as organism-based. To be noted: in vivo, 504 h, dose 10-30 mg/kg.
The nature of data set [33]: Hepatotoxicity in HFD induced C57BL/6 mouse assessed as decrease in liver index at 10 to 30 mg/kg, ip administered for 3 weeks. The data set is classed as toxicity, organism-based. To be noted: in vivo, 504 h, dose 10-30 mg/kg.
Data set [34] can be described thus: Hepatotoxicity in HFD induced C57BL/6 mouse assessed as decrease in serum AST level at 10 to 30 mg/kg, ip administered for 3 weeks. The format is toxicity, organism-based. Particulars: in vivo, 504 h, dose 10-30 mg/kg.
Data set [35] is described as follows: Hepatotoxicity in HFD induced C57BL/6 mouse assessed as decrease in serum ALT level at 10 to 30 mg/kg, ip administered for 3 weeks. The format is toxicity, organism-based. To be noted: in vivo, 504 h, dose 10-30 mg/kg.
Data set [36] is described as follows: Nephrotoxicity in HFD induced C57BL/6 mouse assessed as change in serum CREA level at 10 to 30 mg/kg, ip administered for 3 weeks. The data set is classed as toxicity, organism-based. Particulars: in vivo, 504 h, dose 10-30 mg/kg.
A short description of data set [37]: Nephrotoxicity in HFD induced C57BL/6 mouse assessed as change in serum UREA level at 10 to 30 mg/kg, ip administered for 3 weeks. The data set is classed as toxicity, organism-based. To be noted: in vivo, 504 h, dose 10-30 mg/kg.
A short description of data set [38]: Effect on HEK293 cell viability at 20 uM. The format is toxicity, cell-based. To be noted: human, hek293, 20 µM.

Sequence of Hepatocyte nuclear factor 1-alpha (Homo sapiens) (P20823 whole entry): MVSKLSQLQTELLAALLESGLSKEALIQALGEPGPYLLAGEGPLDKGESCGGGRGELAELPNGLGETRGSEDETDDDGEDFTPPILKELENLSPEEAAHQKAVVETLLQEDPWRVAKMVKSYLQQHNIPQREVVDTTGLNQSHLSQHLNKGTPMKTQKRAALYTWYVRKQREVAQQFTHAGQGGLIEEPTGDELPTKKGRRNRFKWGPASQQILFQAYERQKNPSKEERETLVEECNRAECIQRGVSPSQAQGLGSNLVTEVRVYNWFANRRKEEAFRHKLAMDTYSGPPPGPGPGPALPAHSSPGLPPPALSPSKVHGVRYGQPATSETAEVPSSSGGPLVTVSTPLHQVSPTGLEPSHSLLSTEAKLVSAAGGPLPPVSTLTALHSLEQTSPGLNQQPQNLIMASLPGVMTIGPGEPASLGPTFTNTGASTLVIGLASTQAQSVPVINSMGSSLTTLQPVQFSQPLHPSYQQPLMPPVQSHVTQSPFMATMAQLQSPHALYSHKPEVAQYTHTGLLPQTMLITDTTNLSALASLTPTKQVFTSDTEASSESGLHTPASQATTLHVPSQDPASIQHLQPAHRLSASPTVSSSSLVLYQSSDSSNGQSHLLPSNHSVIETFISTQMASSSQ

In general, inhibition refers to how much of the control response was suppressed. Turning to `C=C1[C@@H](OC(C)=O)[C@H]2[C@@H](OC(C)=O)[C@@H](C)C[C@]2(OC(C)=O)C(=O)[C@H](C)/C=C/C(C)(C)C(=O)C[C@H]1OC(C)=O`, the inhibition in data set [1] is 36.4%; in data set [2], “Dose-Dependent Effect”; in data set [13], “Dose-Dependent Effect”. Also, the Activity entry in the data set with HepG2 [3] is “Dose-Dependent Effect”; with HepG2 [5] it was “Dose-Dependent Effect”; in the data set on HepG2 [6] it was “Dose-Dependent Effect”; with HepG2 [7], “Dose-Dependent Effect”; with HepG2 [8], “Dose-Dependent Effect”; in data set [32], “Non-Toxic”. Also, the Activity entry in data set [33] is recorded as “Toxic”; in data set [34], “Toxic”; in [35] it was “Non-Toxic”; in [36], “Non-Toxic”; in [37], “Non-Toxic”; in [38] it was “Non-Toxic”. In addition, in data set [4], the viability at 24 h, 20 µM is greater than 95%. For the same compound, the outcome (in the data set with HepG2 [9]; in the data set on HepG2 [10]; with HepG2 [12]; in data set [23]; with Hepatocyte [24]; in the data set on Hepatocyte [25]) was Active. Further, the outcome in the data set on Mus musculus [26], in the data set with Mus musculus [27], with Mus musculus [28], in the data set with Mus musculus [29], in the data set with Mus musculus [30] and with Mus musculus [31] was Active. Further, the result with HepG2 [11], in the data set with HepG2 [16], in the data set with HepG2 [17], in the data set on HepG2 [18], in the data set with HepG2 [19] and with HepG2 [20] was inactive. Also, the outcome in the data set on HepG2 [21] was inactive. Further, the inhibition result (in data set [14]; in the data set with HepG2 [22]) was “Active” each time. In data set [15], the inhibition result was “inactive”.

Consider `C=C1[C@@H](OC(C)=O)[C@H]2[C@@H](OC(C)=O)[C@](C)(OC(C)=O)C[C@]2(OC(C)=O)C(=O)[C@H](C)/C=C/C(C)(C)C(=O)[C@@H](OC(=O)C(C)C)[C@H]1OC(=O)CC`, for which the inhibition in data set [1] is 28%; in data set [2], “Dose-Dependent Effect”. Further, in the data set on HepG2 [3], the result was Active. The viability at 24 h, 20 µM in data set [4] was greater than 95%.

`C=C1[C@@H](OC(C)=O)[C@H]2[C@@H](OC(C)=O)[C@](C)(OC(C)=O)C[C@]2(OC(C)=O)C(=O)[C@H](C)/C=C/C(C)(C)C(=O)[C@@H](OC(=O)C(C)C)[C@H]1OC(=O)C(C)C`: the inhibition in data set [1] is 30.4%; in data set [2], “Dose-Dependent Effect”. Also, the outcome in the data set with HepG2 [3] was Active. In addition, the viability at 24 h, 20 µM in data set [4] is greater than 95%.

In the case of `C=C1[C@@H](OC(C)=O)[C@H]2[C@@H](OC(C)=O)[C@](C)(OC(C)=O)C[C@]2(OC(C)=O)C(=O)[C@H](C)/C=C/C(C)(C)C(=O)[C@@H](OC(C)=O)[C@H]1OC(=O)C(C)C`, the figures for the inhibition in data set [1] and in [2] were 22.3% and “Dose-Dependent Effect”, respectively. Also, the result with HepG2 [3] was Active. Further, the viability at 24 h, 20 µM in data set [4] is greater than 95%.

As for `C=C1[C@@H](OC(C)=O)[C@H]2[C@@H](OC(C)=O)[C@@H](C)C[C@]2(OC(C)=O)C(=O)[C@H](C)/C=C/C(C)(C)[C@H](O)C[C@H]1OC(=O)C(C)C`, in [1], the inhibition is 5.7%.

Compound `C=C1[C@@H](OC(C)=O)[C@H]2[C@@H](OC(C)=O)[C@](C)(OC(C)=O)C[C@]2(OC(C)=O)C(=O)[C@H](C)[C@]2(C)O[C@H]2C(C)(C)[C@H](OC(C)=O)[C@@H](OC(=O)c2ccccc2)[C@H]1OC(=O)C(C)C` came in with an inhibition in data set [1] of 0.7%.

`C=C1[C@@H](OC(C)=O)[C@H]2[C@@H](OC(C)=O)[C@@H](C)C[C@]2(OC(C)=O)C(=O)[C@H](C)/C=C/C(C)(C)C(=O)C[C@H]1OC(=O)C(C)C`: the inhibition in data set [1] is 35.7%; in [2], “Dose-Dependent Effect”. The outcome in the data set on HepG2 [3] was Active. The viability at 24 h, 20 µM in data set [4] was greater than 95%.
